Where “and” joins values, the source holds several entries; their conditions need not be identical. Identical values can stand only once.
Tested on: 156681-154-R-J1 tumor spheroid viability
Assay: Anticancer human tumor 156681-154-R-J1 patient-derived melanoma cell line growth inhibition
Conditions: spheroids with HUVEC and MSC; for viability, T/C: stronger effect = lower value
Description: Multicellular complex tumor spheroid response to DNA repair inhibitors in combination with DNA-damaging drugs
This study explores the anticancer activities of DNA-damaging drugs and inhibitors of DNA damage repair, both as single agents and in combinations. Complex tumor spheroids comprised of malignant cells, endothelial cells and mesenchymal stem cells served as an in vitro model for human solid tumors. This model system incorporates physiologically relevant features and patient-derived or established malignant cell lines with clinically relevant genetic alterations from many tumor types. Twenty-six patient-derived or established malignant cell lines were evaluated representing sarcoma, melanoma, small cell lung cancer (SCLC), non-small cell lung cancer (NSCLC), as well as bladder, ovarian and pancreatic cancers. The concentration ranges selected for each drug and investigational agent were based upon clinically achievable concentrations if the clinical Cmax of the agent was known.
Compounds. The drugs and compounds olaparib (NSC753686), talazoparib (NSC767125), berzosertib (NSC777718), elimusertib (NSC800525), nedisertib (NSC802822), VX-984 (NSC792969), AZD-1390 (NSC803789), temozolomide (NSC362856), topotecan (NSC609699), trabectedin (NSC813783), staurosporine (NSC755774), and gemcitabine (NSC613327) were obtained from the National Cancer Institute (NCI) Developmental Therapeutics Program Chemical Repository. The FDA-approved anticancer drug set is available from the Developmental Therapeutics Program at https://dtp.cancer.gov/organization/dscb/obtaining/available_plates.htm. […] The stock solutions were prepared in dimethyl sulfoxide (DMSO, Sigma-Aldrich, St. Louis, MO, cat. D2650) at 400-fold the tested concentration and stored at -70 degrees C. Prior to their use, the stock solutions were diluted in fresh medium and the final DMSO concentration in the assay was 0.25% (v/v). All drugs and investigational agents were tested over a range starting from a high concentration at or near the clinical Cmax and decreasing in half-log increments. If the clinical Cmax for an agent had not been determined, the highest concentration tested was 10 microM.
Cell Lines. The patient-derived cancer cell (PDC) lines: 156681-154-R-J1-PDC, 283228-195-R-J1-PDC, 287954-098-R-J1-PDC, 292921-168-R-J2-PDC, 349418-098-R-PDC, 425362-245-T-J1-PDC, 556581-035-R-J1-PDC, and BL0293-F563-PDC were received from the NCI Patient-Derived Models Repository (PDMR, https://pdmr.cancer.gov). The established cell lines HS-SY-2 (RRID:CVCL_8719), MPNST, and SYO-1 (RRID:CVCL_7146) were obtained from the Sloan Kettering Institute. The alveolar soft parts sarcoma cell line ASPS-1 (RRID:CVCL_S738) was established at the NCI and grown from internal seed stocks. The following established cell lines were purchased from the American Type Culture Collection (ATCC, Manassas, VA): G-401 (ATCC, cat. CRL-1441, RRID:CVCL_0270), SW982 (ATCC, cat. HTB-93, RRID:CVCL_1734), VA-ES-BJ (ATCC, cat. CRL-2138, RRID:CVCL_1785), NCI-H719 (ATCC, cat. CRL-5837, RRID:CVCL_1582), NCI-H196 (ATCC, cat. CRL-5823, RRID:CVCL_1509), NCI-H841 (ATCC, cat. CRL-5845, RRID:CVCL_1595), NCI-H1618 (ATCC, cat. CRL-5879, RRID:CVCL_1480), NCI-H1876 (ATCC, cat. CRL-5902, RRID:CVCL_1503), DMS 114 (ATCC, cat. CRL-2066; RRID:CVCL_1174), NCI-H211 (ATCC, cat. CRL-5824; RRID:CVCL_1529), and SW 1271 (ATCC, cat. CRL-2177, RRID:CVCL_1716). The small cell lung cancer cell line COR-L88 was purchased from Sigma-Aldrich (cat. 92031917-1VL, RRID:CVCL_1141). The non-small cell lung cancer cell lines NCI-H226 (RRID:CVCL_1544) and NCI-H322M (RRID:CVCL_1557) were established at the NCI and grown from internal seed stocks. Pooled donor human umbilical vein endothelial cells (HUVEC, Lonza, cat. CC-2519) and human mesenchymal stem cells (hMSC, Lonza, cat. PT-2501) were purchased from Lonza (Walkersville, MD).
Cell Culture. All cells were maintained in an incubator at 37 degrees C and 5% CO2 with 95% humidity. […]

[1] = compound alone, run of 10/17/2019
[2] = compound alone, run of 10/25/2019
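Further: spheroids exposed to compounds for 7 days before readout.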
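Wherever viability, T/C is given: percent of vehicle control viability where 100% = DMSO-treated spheroids.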

| SMILES | viability, T/C (compound 0.0316 µM) | viability, T/C (compound 0.1 µM) | viability, T/C (compound 0.316 µM) | viability, T/C (compound 1 µM) | viability, T/C (compound 3.16 µM) | viability, T/C (compound 10 µM) | IC50 (curve of compound) | viability, T/C (compound 0.00949 µM) | viability, T/C (compound 0.0949 µM) | viability, T/C (compound 0.3 µM) | viability, T/C (compound 0.949 µM) | viability, T/C (compound 3 µM) | also measured |
| --- | --- | --- | --- | --- | --- | --- | --- | --- | --- | --- | --- | --- | --- |
| CC(C)n1c(=O)n(C)c2cnc3cc(F)c(-c4ccc(OCCCN5CCCCC5)nc4)cc3c21 | 106% and 92.3% and 88.9% | 101% (2×) and 102% | 97.7% and 98.2% and 112% | 100% and 106% and 96.7% | 98.3% and 109% (2×) | 78.9% and 100% and 96.5% | > 10000 nM |  |  |  |  |  |  |
| CC1COCCN1c1cc(-c2ccnn2C)c2ccnc(-c3ccn[nH]3)c2n1 (centres undefined) | 83.8% and 68.1% and 84.5% | 77.6% and 66% and 75.6% | 37.2% and 34.3% and 47.2% | 30.1% and 21.7% and 29.9% | 31.1% and 24.6% and 29.9% | 25.2% and 20.8% and 22.6% | 220 nM and 179 nM and 286 nM |  |  |  |  |  |  |
| CC[C@@]1(O)C(=O)OCc2c1cc1n(c2=O)Cc2cc3c(CN(C)C)c(O)ccc3nc2-1 |  |  |  |  |  |  |  | 85.4% [middle of 10 runs] | 22.1% [middle of 10 runs] | 31.3% [middle of 10 runs] |  |  | IC50 [1]: 39.5 nM [middle of 5 runs]; IC50 [2]: 45.2 nM [middle of 5 runs] |
| CNCc1ccc(-c2cc(-c3nc(-c4ccc(S(=O)(=O)C(C)C)cc4)cnc3N)on2)cc1 |  |  |  |  |  |  | 1290 nM and 931 nM and 1170 nM | 96.4% and 93.6% and 109% | 95.8% and 90.1% and 96.7% | 89% and 71.3% and 84.3% | 59.4% and 53.5% and 57.1% | 24.5% and 15.9% and 19.6% | viability, T/C (compound 0.03 µM): 103% and 118% and 115% |
| COc1cc(C)[nH]c(=O)c1CN1CCc2c(Cl)cc(C(OC)C3COC3)c(Cl)c2C1=O (centres undefined) | 84.3% and 79.3% and 103% | 96.4% and 99.4% and 110% | 99% and 102% and 105% | 91.7% and 88.1% and 112% | 86% and 95.8% and 122% | 107% and 93% and 118% | > 10000 nM |  |  |  |  |  |  |
| COc1cc2c(cc1O)CCNC21CSC2c3c(OC(C)=O)c(C)c4c(c3C(COC1=O)N1C(O)C3Cc5cc(C)c(OC)c(O)c5C(C21)N3C)OCO4 (centres undefined) |  |  |  |  |  |  |  |  |  |  |  |  | viability, T/C (compound 30 pM): 95.8% [middle of 10 runs]; viability, T/C (compound 94.9 pM): 101% [middle of 10 runs]; viability, T/C (compound 0.0003 µM): 80.7% [middle of 10 runs]; viability, T/C (compound 0.000949 µM): 4.41% [middle of 10 runs]; viability, T/C (compound 0.003 µM): 0.17% [middle of 9 runs]; IC50 [2]: 0.477 nM [middle of 10 runs] |
| COc1ccc([C@@H](O)c2cc(-c3ncnc4cc(N5CCOCC5)ccc34)c(F)cc2Cl)nn1 | 95.2% and 80.1% and 80.3% | 99.7% and 89.8% and 88% | 88% and 84.6% and 86.1% | 71.3% and 63.9% and 76.9% | 59.8% and 60.9% and 55.3% | 46.2% and 62.8% and 43.4% | 7330 nM and > 10000 nM and 5220 nM |  |  |  |  |  |  |
| Cc1cc(C)c(CNC(=O)c2cc(-c3ccc(CN4CCOCC4)cc3)cc3c2cnn3C2CCCC2)c(=O)[nH]1 | 80.8% and 92.1% and 108% | 101% and 82.4% and 85.2% | 85.4% and 99.5% and 97.3% | 97.1% and 73% and 93.2% | 90.4% and 89.8% and 92.5% | 90% and 87.1% and 91.1% | > 10000 nM |  |  |  |  |  |  |
| Cc1sc2c(c1C)C(c1ccc(Cl)cc1)=NC(CC(=O)Nc1ccc(O)cc1)c1nnc(C)n1-2 (centres undefined) |  |  |  |  |  |  | 1920 nM and 1730 nM and > 3000 nM | 77.1% and 103% and 87% | 83.7% and 95.2% and 98% | 70% and 80.3% and 96.3% | 70.8% and 58.4% and 64.4% | 38.2% and 42.2% and 73% | viability, T/C (compound 0.03 µM): 89.1% and 92% and 94.1% |
| Cn1ncnc1[C@H]1c2n[nH]c(=O)c3cc(F)cc(c23)N[C@@H]1c1ccc(F)cc1 |  |  |  |  |  |  | 1330 nM and 993 nM and 1500 nM | 69.9% and 99.2% and 102% | 79.2% and 71.3% and 86.4% | 71.5% and 69% and 85.9% | 67.1% and 59.8% and 73.4% | 8.93% and 21.2% and 16.4% | viability, T/C (compound 0.03 µM): 71.1% and 90.5% and 84.6% |
| Cn1nnc2c(C(N)=O)ncn2c1=O |  |  |  | 90.8% [middle of 10 runs] |  |  |  |  |  |  |  |  | viability, T/C (compound 31.6 µM): 57.1% [middle of 10 runs]; IC50 [1]: 81000 nM and > 100000 nM and 72600 nM |
| O=C(c1cc(Cc2n[nH]c(=O)c3ccccc23)ccc1F)N1CCN(C(=O)C2CC2)CC1 |  |  |  |  |  |  | > 30000 nM |  | 84% and 87.4% and 95% | 82.5% and 83.7% and 107% | 103% and 85.3% and 77.8% | 64.4% and 72.5% and 82.7% | viability, T/C (compound 9.49 µM): 62.2% and 60.3% and 65.8%; viability, T/C (compound 30 µM): 50.7% and 52.9% and 63.1% |
| [2H]c1nc(C)nc([2H])c1-c1cc(NC[C@@H](C)c2cccc3c(C(=O)NC)ccnc23)ncn1 | 84.5% and 81.3% and 110% | 98.4% and 80% and 94.7% | 91.8% and 92.6% and 92.1% | 86.1% and 87.3% and 89.5% | 91.8% and 77.7% and 88.6% | 86.8% and 70% and 99.2% | > 10000 nM |  |  |  |  |  |  |

From PubChem BioAssay AID1845195 (Molecular Pharmacology Branch, DTP, NCI, 2023)
